Data from article PMC8762250, “Identification of Novel Chemical Scaffolds that Inhibit the Growth of Mycobacterium tuberculosis in Macrophages” (Frontiers in Pharmacology, 2022).
Like-named read-outs stand apart in the source and are kept apart here. Marks after values point to notes of the source that are not given here.

Tests used:
[1] = system: RAW264.7 cells; experiment: Macrophage viability in the same high content assay; details: infected RAW264.7 macrophages; for Intracellular activity Cytotoxicity TC50: 72 h; for Intracellular RAW TC50: SAR tables 4-8
[2] = system: HepG2 cells; experiment: HepG2 cytotoxicity (CellTiter-Glo, 72 h); format: cell-based, human; details: for HepG2 cytotoxicity TC50 Galactose / HepG2 cytotoxicity TC50 Glucose: human, 72 h
Procedure: (§1) Cytotoxicity against HepG2 cells was measured after 72 h. Cells were seeded in 384-well plates at 1,800 cells per well. Compounds were added as a 10-point three-fold serial dilution after 24 h (final assay concentration of 1% DMSO). CellTiter-Glo® reagent (Promega) was added and relative luminescence units (RLU) measured. Data were normalized to the DMSO controls. Curves were fitted using the Levenberg–Marquardt algorithm; TC50 was calculated as the compound concentration required to reduce cell viability by 50%.
(§2) We further evaluated cytotoxicity using the HepG2 cell line cultured with either glucose or galactose in the medium (Table 2). HepG2 cells cultured with galactose rely on mitochondrial oxidative phosphorylation rather than glycolysis which increases their susceptibility to mitochondrial toxicants allowing us to identify compounds with mitochondrial toxicity ([Kamalian et al., 2015]).

[3] = system: M. tuberculosis; experiment: High content assay of intracellular M. tuberculosis growth in infected RAW264.7 macrophages; format: cell-based, Mycobacterium tuberculosis H37Rv-LP; details: Mycobacterium tuberculosis, RAW264.7, 72 h, M. tuberculosis in RAW264.7 cells, MOI 1, 72 h; read-out: Intracellular activity Anti-tubercular activity IC50
Procedure: Compounds were obtained in 384-well plates as 10 mM DMSO stock solutions and tested as described ([Manning et al., 2017]). Briefly, assay plates were prepared in clear bottom, black 384-well plates with 30 μl cRPMI and 0.6 μl compound in columns 3–22 (final concentration of 10 μM compound, 1% DMSO). […] INH and STA were also included in dose response on each plate. RAW264.7 cells were infected with M. tuberculosis DREAM8 as described ([Manning et al., 2017]) at an MOI of 1 for 24 h and extracellular bacteria removed by washing. Cells were recovered using Accumax, harvested, washed and resuspended in serum-free RPMI; 30 μl of infected cells were dispensed into each well at 3,300 cells/well. Plates were incubated for 72 h, 10 μl of 5X SYBR Green I was added and plates were imaged with an ImageXpress Micro High Content Screening System (Molecular Devices) using a ×4 objective and FITC and Texas Red channels. MetaXpress was used to analyze images. The integrated intensity of M. tuberculosis or macrophages was calculated for each well. Growth inhibition was calculated for each test well by normalizing to the average integrated intensity of the DMSO control wells. IC50 was calculated as the compound concentration required to reduce bacterial growth by 50%. TC50 was calculated as the compound concentration required to reduce macrophage viability by 50%.

[4] = system: M. tuberculosis; experiment: Minimum inhibitory concentration in liquid medium (axenic culture); format: cell-based, Mycobacterium tuberculosis; details: Mycobacterium tuberculosis; for IC50: read-out: Anti-tubercular activity in axenic culture IC50
[5] = HepG2 cytotoxicity (CellTiter-Glo, 72 h); format: cell-based, human; details: human
Procedure: as §1, §2

[6] = 120 h, extracellular, 5 days, OD590
[7] = 120 h, extracellular, 5 days, OD590, read-out: Anti-tubercular activity in axenic culture IC90
[8] = HepG2 cytotoxicity IC50 Galactose
[9] = HepG2 cytotoxicity IC50 Glucose
[10] = axenic culture, SAR tables 4-8, read-out: Extracellular IC90

SMILES | Intracellular activity Cytotoxicity TC50 [1] | HepG2 cytotoxicity TC50 Galactose [2] | HepG2 cytotoxicity TC50 Glucose [2] | IC50 [3] [µM] | IC50 [4, 6] [µM] | IC90 [4, 7] [µM] | Intracellular RAW TC50 [1] | IC50 at 72 h [5, 8] [µM] | IC50 at 72 h [5, 9] [µM] | IC90 [4, 10] [µM] | ratio of TC50glu/TC50gal ([2]; HepG2, glucose vs galactose)
Brc1c(-c2ccccc2)nc2ccccn12 [TPN-0095038] | 72 ± 15 ^b µM | >100 ^c µM | >100 ^b µM | 2.5 | 9.2 ± 1 | > 20 |  |  |  |  | 
O=C(COc1ccc(Cl)cc1)Nc1ccc(N2CCCCC2)c(Cl)c1 [TPN-0006209] | 68 ± 0.50 ^b µM | >100 ^b µM | >100 ^b µM |  | > 20 | > 20 | 68 ± 0.5 ^b µM | > 100 | > 100 | > 20 | 
NNC(=O)c1ccncc1 [INH, isoniazid, reference compound] |  |  |  | 0.23 ± 0.08 |  |  |  |  |  |  | 
Cc1c(Cc2ccccc2)sc(NC(=O)c2ccccc2Cl)c1C(N)=O [TPN-0073560] | 23 ± 4.7 ^d µM | 42 ± 3.3 ^c µM | >100 ^b µM |  | > 20 | > 20 | 23 ± 4.7 ^d µM | 42 ± 3.3 | > 100 | > 20 | ~4
O=C(c1ccc(Cl)c(Cl)c1)N1CCN(c2ccc([N+](=O)[O-])c3cccnc23)CC1 [TPN-0095034] | >100 ^d µM | >100 ^c µM | >100 ^c µM | 8.4 ± 2.3 | > 20 | > 20 |  |  |  |  | 
Clc1c(-c2ccccc2)nc2ccccn12 [TPN-0095030] | >100 ^b µM | >100 ^b µM | >100 ^b µM | 6.9 ± 1.9 | > 20 | > 20 |  |  |  |  | 
O=C(c1c(F)cccc1F)N1CCN(c2cc(N3CCCCCC3)c(F)cc2[N+](=O)[O-])CC1 [TPN-0095035] | >50 ^c µM | 21 ± 2.0 ^b µM | 27 ± 0 ^b µM | 1 ± 0.02 | 9.6 ± 0.1 | > 10 |  |  |  |  | 
Cc1sc(NC(=O)c2ccc(OC(C)C)cc2)c(C(N)=O)c1C [TPN-0073559] | 50 ± 24 ^d µM | 41 ± 11 ^c µM | 49 ± 8.5 ^c µM |  | > 20 | > 20 | 50 ± 24 ^d µM | 41 ± 11 | 49 ± 8.5 | > 20 | 
Cc1ccc(Nc2nc(-c3ccc(Cl)cc3)cs2)cc1Cl [TPN-0095032] | 9.9 ± 0.98 ^c µM | 19 ± 0.5 ^b µM | 23 ± 1.5 ^b µM | 3.5 ± 0.83 | > 20 | > 20 |  |  |  |  | 
COc1ccc(C(=O)c2sc(NCc3ccccc3)nc2N)cc1 [TPN-0095041] | 13 ± 5.5 ^c µM | 24 ± 0.5 ^b µM | 52 ± 5.5 ^b µM | 3.6 ± 0.5 | 14 ± 1 | > 20 |  |  |  |  | 
Cn1nc(C2CC2)cc1C(=O)Nc1ccc(I)cc1 [TPN-0089788] | >100e µM | 30 ± 12 ^e µM | 52 ± 18 ^e µM | 2.5 ± 0.57 | > 20 | > 20 |  |  |  |  | 
CCOC(=O)c1sc(NC(=O)Cc2c(F)cccc2Cl)nc1C [TPN-0089695] | 45 ± 17 ^b µM | >100 ^e µM | >100 ^d µM | 4.7 ± 1.2 | 19 | > 20 |  |  |  |  | 
